Where two headings read alike, the source gives them in different places.
Key:
[1] = test system: L4 stage larvae of D. immitis; experiment: L4 stage larvae motility/kill assay; type: cell-based, Dirofilaria immitis
[2] = test system: Dirofilaria immitis microfilariae; experiment: in vitro microwell motility assay against heartworm microfilariae; type: cell-based; conditions: microfilaria from canine blood, 384 well plate, 72 hours incubation at 37° C. and 5% CO2, LemnaTec Scanalyzer

Molecule: COc1ccccc1Oc1ccc(C#N)cc1OCC(C)(C#N)NC(=O)c1ccc(S(F)(F)(F)(F)F)cc1 (stereo not drawn) [test compound 69, N-{1-cyano-2-[5-cyano-2-(2-methoxyphenoxy)phenoxy]-1-methylethyl}-4-(pentafluorothio)benzamide]
- active against L4 D. immitis at 10 μM ([1]; screened at 10 μM in duplicate, 96-well plate, motility observed at 4, 24, 48 and 72 hours, endpoint defined as ED80 (80% of larvae killed)): active

Molecule: ivermectin [reference compound]
- active against L4 D. immitis at 10 μM [1]: active

Molecule: COc1ccc(Oc2ccc(C#N)cc2OCC(C)(C#N)NC(=O)c2ccc(S(F)(F)(F)(F)F)cc2)c(F)c1F (stereo not drawn) [test compound 76, N-{1-cyano-2-[5-cyano-2-(2,3-difluoro-4-methoxyphenoxy)phenoxy]-1-methylethyl}-4-(pentafluorothio)benzamide]
- ED50 (dose at which the overall microfilaria motility was reduced by 50% compared to that of an untreated control) [2]: 10 µM

Molecule: CSc1ccc(COCC(C)(C#N)NC(=O)c2ccc(S(F)(F)(F)(F)F)cc2)cc1 (stereo not drawn) [test compound 53, N-(1-cyano-1-methyl-2-{[4-(methylthio)benzyl]oxy}ethyl)-4-(pentafluorothio)benzamide]
- ED50 (dose at which the overall microfilaria motility was reduced by 50% compared to that of an untreated control) [2]: 10 µM

Molecule: COc1ccc(OCC(C)(C#N)NC(=O)c2ccc(S(F)(F)(F)(F)F)cc2)cc1C#N (stereo not drawn) [test compound 41, N-[1-cyano-2-(3-cyano-4-methoxyphenoxy)-1-methylethyl]-4-(pentafluorothio)-benzamide]
- ED50 (dose at which the overall microfilaria motility was reduced by 50% compared to that of an untreated control) [2]: 33 µM

Molecule: CC(C#N)(COc1cc(C#N)ccc1Br)NC(=O)c1ccc(S(F)(F)(F)(F)F)cc1 (stereo not drawn) [test compound 27, N-[2-(2-bromo-5-cyanophenoxy)-1-cyano-1-methylethyl]-4-(pentafluorothio)-benzamide]
- ED50 (dose at which the overall microfilaria motility was reduced by 50% compared to that of an untreated control) [2]: 3.3 µM

Molecule: CC(C#N)(COc1ccc(C#N)cc1OC(F)(F)F)NC(=O)c1ccc(S(F)(F)(F)(F)F)cc1 (stereo not drawn) [test compound 56, N-{1-cyano-2-[4-cyano-2-(trifluoromethoxy)phenoxy]-1-methylethyl}-4-(pentafluorothio)benzamide]
- ED50 (dose at which the overall microfilaria motility was reduced by 50% compared to that of an untreated control) [2]: 3.3 µM

Molecule: COc1c(F)cc(Oc2ccc(C#N)cc2OCC(C)(C#N)NC(=O)c2ccc(S(F)(F)(F)(F)F)cc2)cc1F (stereo not drawn) [test compound 78, N-{1-cyano-2-[5-cyano-2-(3,5-difluoro-4-methoxyphenoxy)phenoxy]-1-methylethyl}-4-(pentafluorothio)benzamide]
- ED50 (dose at which the overall microfilaria motility was reduced by 50% compared to that of an untreated control) [2]: 1 µM

Molecule: CC(C#N)(COc1cc(Br)cc(C#N)c1)NC(=O)c1ccc(S(F)(F)(F)(F)F)cc1 (stereo not drawn) [test compound 33, N-[2-(3-bromo-5-cyanophenoxy)-1-cyano-1-methylethyl]-4-(pentafluorothio)-benzamide]
- ED50 (dose at which the overall microfilaria motility was reduced by 50% compared to that of an untreated control) [2]: 33 µM

Molecule: CC(C#N)(COc1cc(C#N)cc(C(F)(F)F)c1)NC(=O)c1ccc(S(F)(F)(F)(F)F)cc1 (stereo not drawn) [test compound 5, N-{1-cyano-2-[3-cyano-5-(trifluoromethyl)phenoxy]-1-methylethyl}-4-(pentafluorothio)benzamide]
- ED50 (dose at which the overall microfilaria motility was reduced by 50% compared to that of an untreated control) [2]: 3.3 µM

Molecule: CC(C#N)(NC(=O)c1ccc(S(F)(F)(F)(F)F)cc1)C1Cc2cc(C#N)cc(C(F)(F)F)c2O1 (stereo not drawn) [test compound 83, N-{1-cyano-1-[5-cyano-7-(trifluoromethyl)-2,3-dihydro-1-benzofuran-2-yl]ethyl}-4-(pentafluorothio)benzamide]
- ED50 (dose at which the overall microfilaria motility was reduced by 50% compared to that of an untreated control) [2]: 10 µM

Molecule: CC(C#N)(COc1cc(C#N)ccc1Oc1ccc(Cl)cc1F)NC(=O)c1ccc(S(F)(F)(F)(F)F)cc1 (stereo not drawn) [test compound 62, N-{2-[2-(4-chloro-2-fluorophenoxy)-5-cyanophenoxy]-1-cyano-1-methylethyl}-4-(pentafluorothio)benzamide]
- ED50 (dose at which the overall microfilaria motility was reduced by 50% compared to that of an untreated control) [2]: 1 µM

Molecule: CC(C#N)(COc1cc(C#N)ccc1Oc1ccc(Cl)cc1)NC(=O)c1ccc(S(F)(F)(F)(F)F)cc1 (stereo not drawn) [test compound 64, N-{2-[2-(4-chlorophenoxy)-5-cyanophenoxy]-1-cyano-1-methylethyl}-4-(pentafluorothio)benzamide]
- ED50 (dose at which the overall microfilaria motility was reduced by 50% compared to that of an untreated control) [2]: 1 µM

Molecule: CC(C#N)(COc1c(F)cc(C#N)cc1C(F)(F)F)NC(=O)c1ccc(S(F)(F)(F)(F)F)cc1 (stereo not drawn) [test compound 26, N-{1-cyano-2-[4-cyano-2-fluoro-6-(trifluoromethyl)phenoxy]-1-methylethyl}-4-(pentafluorothio)benzamide]
- ED50 (dose at which the overall microfilaria motility was reduced by 50% compared to that of an untreated control) [2]: 10 µM

Molecule: COc1ccc(Oc2ccc(C#N)cc2OCC(C)(C#N)NC(=O)c2ccc(S(F)(F)(F)(F)F)cc2)c(Cl)c1 (stereo not drawn) [test compound 75, N-{2-[2-(2-chloro-4-methoxyphenoxy)-5-cyanophenoxy]-1-cyano-1-methylethyl}-4-(pentafluorothio)benzamide]
- ED50 (dose at which the overall microfilaria motility was reduced by 50% compared to that of an untreated control) [2]: 3.3 µM

Molecule: CC(C#N)(COc1ccc(Br)cc1F)NC(=O)c1ccc(S(F)(F)(F)(F)F)cc1 (stereo not drawn) [test compound 32, N-[2-(4-bromo-2-fluorophenoxy)-1-cyano-1-methylethyl]-4-(pentafluorothio)-benzamide]
- ED50 (dose at which the overall microfilaria motility was reduced by 50% compared to that of an untreated control) [2]: 33 µM

Molecule: CC(C#N)(COc1ccc(F)cc1Br)NC(=O)c1ccc(S(F)(F)(F)(F)F)cc1 (stereo not drawn) [test compound 31, N-[2-(2-bromo-4-fluorophenoxy)-1-cyano-1-methylethyl]-4-(pentafluorothio)-benzamide]
- ED50 (dose at which the overall microfilaria motility was reduced by 50% compared to that of an untreated control) [2]: 10 µM

Molecule: CC(C#N)(COc1ccc(Cl)cc1F)NC(=O)c1ccc(S(F)(F)(F)(F)F)cc1 (stereo not drawn) [test compound 20, N-[2-(4-chloro-2-fluorophenoxy)-1-cyano-1-methylethyl]-4-(pentafluorothio)-benzamide]
- ED50 (dose at which the overall microfilaria motility was reduced by 50% compared to that of an untreated control) [2]: 10 µM

Molecule: CC(C#N)(COc1c(F)cc(F)cc1C#N)NC(=O)c1ccc(S(F)(F)(F)(F)F)cc1 (stereo not drawn) [test compound 54, N-[1-cyano-2-(2-cyano-4,6-difluorophenoxy)-1-methylethyl]-4-(pentafluorothio)-benzamide]
- ED50 (dose at which the overall microfilaria motility was reduced by 50% compared to that of an untreated control) [2]: 33 µM

Molecule: CC(C#N)(COc1ccc(Cl)c(Cl)c1)NC(=O)c1ccc(S(F)(F)(F)(F)F)cc1 (stereo not drawn) [test compound 38, N-[1-cyano-2-(3,4-dichlorophenoxy)-1-methylethyl]-4-(pentafluorothio)benzamide]
- ED50 (dose at which the overall microfilaria motility was reduced by 50% compared to that of an untreated control) [2]: 33 µM

Molecule: CC(C#N)(COc1cc(C#N)ccc1Oc1ccc(Cl)cc1Cl)NC(=O)c1ccc(S(F)(F)(F)(F)F)cc1 (stereo not drawn) [test compound 65, N-{1-cyano-2-[5-cyano-2-(2,4-dichlorophenoxy)phenoxy]-1-methylethyl}-4-(pentafluorothio)benzamide]
- ED50 (dose at which the overall microfilaria motility was reduced by 50% compared to that of an untreated control) [2]: 3.3 µM

Molecule: CC(C#N)(COc1cc(Br)ccc1C#N)NC(=O)c1ccc(S(F)(F)(F)(F)F)cc1 (stereo not drawn) [test compound 36, N-[2-(5-bromo-2-cyanophenoxy)-1-cyano-1-methylethyl]-4-(pentafluorothio)-benzamide]
- ED50 (dose at which the overall microfilaria motility was reduced by 50% compared to that of an untreated control) [2]: 10 µM

Molecule: CC(C#N)(COc1cc(Cl)ccc1Cl)NC(=O)c1ccc(S(F)(F)(F)(F)F)cc1 (stereo not drawn) [test compound 39, N-[1-cyano-2-(2,5-dichlorophenoxy)-1-methylethyl]-4-(pentafluorothio)benzamide]
- ED50 (dose at which the overall microfilaria motility was reduced by 50% compared to that of an untreated control) [2]: 10 µM

Molecule: Cc1ccc(Oc2ccc(C#N)cc2OCC(C)(C#N)NC(=O)c2ccc(S(F)(F)(F)(F)F)cc2)c(Cl)c1 (stereo not drawn) [test compound 71, N-{2-[2-(2-chloro-4-methylphenoxy)-5-cyanophenoxy]-1-cyano-1-methylethyl}-4-(pentafluorothio)benzamide]
- ED50 (dose at which the overall microfilaria motility was reduced by 50% compared to that of an untreated control) [2]: 1 µM

Molecule: CC(C#N)(COc1cc(F)c(F)cc1Br)NC(=O)c1ccc(S(F)(F)(F)(F)F)cc1 (stereo not drawn) [test compound 58, N-[2-(2-bromo-4,5-difluorophenoxy)-1-cyano-1-methylethyl]-4-(pentafluorothio)benzamide]
- ED50 (dose at which the overall microfilaria motility was reduced by 50% compared to that of an untreated control) [2]: 33 µM

Molecule: CC(C#N)(COc1cccc(Cl)c1C(F)(F)F)NC(=O)c1ccc(S(F)(F)(F)(F)F)cc1 (stereo not drawn) [test compound 50, N-{2-[3-chloro-2-(trifluoromethyl)phenoxy]-1-cyano-1-methylethyl}-4-(pentafluorothio)benzamide]
- ED50 (dose at which the overall microfilaria motility was reduced by 50% compared to that of an untreated control) [2]: 33 µM

Molecule: CC(C#N)(COc1cc(C#N)ccc1Cl)NC(=O)c1ccc(S(F)(F)(F)(F)F)cc1 (stereo not drawn) [test compound 4, N-[2-(2-chloro-5-cyanophenoxy)-1-cyano-1-methylethyl]-4-(pentafluorothio)benzamide]
- ED50 (dose at which the overall microfilaria motility was reduced by 50% compared to that of an untreated control) [2]: 10 µM

Molecule: CC(C#N)(COc1cc(C#N)ccc1Oc1ccc(F)cc1)NC(=O)c1ccc(S(F)(F)(F)(F)F)cc1 (stereo not drawn) [test compound 61, N-{1-cyano-2-[5-cyano-2-(4-fluorophenoxy)phenoxy]-1-methylethyl}-4-(pentafluorothio)benzamide]
- ED50 (dose at which the overall microfilaria motility was reduced by 50% compared to that of an untreated control) [2]: 1 µM

Molecule: Cc1cc(C#N)ccc1OCC(C)(C#N)NC(=O)c1ccc(S(F)(F)(F)(F)F)cc1 (stereo not drawn) [test compound 40, N-[1-cyano-2-(4-cyano-2-methylphenoxy)-1-methylethyl]-4-(pentafluorothio)-benzamide]
- ED50 (dose at which the overall microfilaria motility was reduced by 50% compared to that of an untreated control) [2]: 10 µM

Molecule: COc1cc(F)c(Oc2ccc(C#N)cc2OCC(C)(C#N)NC(=O)c2ccc(S(F)(F)(F)(F)F)cc2)c(F)c1 (stereo not drawn) [test compound 77, N-{1-cyano-2-[5-cyano-2-(2,6-difluoro-4-methoxyphenoxy)phenoxy]-1-methylethyl}-4-(pentafluorothio)benzamide]
- ED50 (dose at which the overall microfilaria motility was reduced by 50% compared to that of an untreated control) [2]: 10 µM

Reference: patent publication US8962681B2, “Use of aminoacetonitrile derivatives against endoparasites” (Zoetis LLC, priority 2011, dated 2015)
